Source: US8633166B2, “Methicillin-resistant Staphylococcus aureus active metabolites” (priority 2009, dated 2014)

Legend:
[1] = Maximum tolerated dose, preliminary experiment; format: in vivo, Mice (CD-1); settings: 20 mg/kg IP for two days
Protocol: The number of MRSA isolated from vancomycin treated animals was 2.2×10^7 g of tissue, a reduction of 72% compared to vehicle control. Similarly, the number of MRSA recovered after treatment with compound (I) at 3 mg/kg and 15 mg/kg were 2.6×10^7 and 1.8×10^7 respectively, which correspond to a reduction of 67% and 78% as compared to vehicle control. […] To determine the maximum tolerated dose in the preliminary experiment, a maximum of 20 mg/kg of compound (1) was giving IP for two days.

Enterococcus faecalis = assay: In vitro MIC, broth microdilution (CLSI); format: cell-based
Protocol: (§1) All test articles were dissolved in DMSO. Stock solutions were prepared at 40-fold the highest concentration in the test plate. The final concentration of DMSO in the test system was 2.5%.
(§2) The medium employed for the MIC assay was Mueller Hinton II Broth (MHB II-Becton Dickinson, #212322, Lot #9044411) for most of the organisms. MHB II was supplemented with 2% lysed horse blood (Cleveland Scientific Lot #22299-1) to accommodate the growth of Streptococcus pneumoniae, Streptococcus pyogenes and Streptococcus agalactiae. The media were prepared at 102.5% the normal weight to offset the dilution created by the addition of 5 μL drug solution to each well of the microdilution panels.
(§3) The MIC assay method followed the procedure described by the Clinical and Laboratory Standards Institute (see Clinical and Laboratory Standards Institute. Methods for Dilution Antimicrobial, Susceptibility Tests for Bacteria That Grow Aerobically; Approved Standard—Eighth Edition. CLSI document M07-A8 [ISBN 1-56238-689-1]. Clinical and Laboratory, Standards Institute, 940 West Valley Road, Suite 1400, Wayne, Pa. 19087-1898 USA, 2009) and employed automated liquid handlers to conduct serial dilutions and liquid transfers. Automated liquid handlers included the Multidrop 384 (Labsystems, Helsinki, Finland), Biomek 2000 and Multimek 96 (Beckman Coulter, Fullerton Calif.).
(§4) The wells of Columns 2-12 of standard 96-well microdilution plates (Falcon 3918) were filled with 150 μL of DMSO on the Multidrop 384. The drugs (300 μL) were dispensed into Column 1 of the appropriate row in these plates. These would become the mother plates from which the test plates (daughter plates) were prepared. The Biomek 2000 completed serial transfers through Column 11 in the mother plates. The wells of Column 12 contained no drug and were the organism growth control wells in the daughter plates. The daughter plates were loaded with 185 μL of the appropriate test media (described above) using the Multidrop 384. The daughter plates were prepared on the Multimek 96 instrument which transferred 5 μL of drug solution from each well of a mother plate to each corresponding well of each daughter plate in a single step. Therefore, the test agents were maintained in solution in 100% DMSO up until the point of being added to the final test medium.
(§5) Standardized inoculum of each organism was prepared per CLSI methods (See Clinical and Laboratory Standards Institute. Performance Standards for Antimicrobial Susceptibility Testing; Nineteenth Informational Supplement. CLSI document M100-S19 [ISBN 1-56238-690-5]. Clinical and Laboratory Standards Institute, 940 West Valley Road, Suite 1400, Wayne, Pa. 19087-1898 USA, 2009.). Suspensions were prepared in MHB to equal the turbidity of a 0.5 McFarland standard. The suspensions were diluted 1:9 in broth appropriate to the organism. The inoculum for each organism was dispensed into sterile reservoirs divided by width (Beckman Coulter), and the Biomek 2000 was used to inoculate the plates. Daughter plates were placed on the Biomek 2000 work surface reversed so that inoculation took place from low to high drug concentration. The Biomek 2000 delivered 10 μL of standardized inoculum into each well. This yielded a final cell concentration in the daughter plates of approximately 5×10^5 colony-forming-units/mL. Thus, the wells of the daughter plates ultimately contained 185 μL of broth, 5 μL of drug solution, and 10 μL of bacterial inoculum. The final concentration of DMSO in the assay plate was 2.5%.
(§6) Plates were stacked 3 high, covered with a lid on the top plate, placed in plastic bags, and incubated at 35° C. for approximately 18 hours for most of the isolates. The Streptococcus plates were read after 20 hours of incubation. The microplates were viewed from the bottom using a plate viewer. […] The MIC was read and recorded as the lowest concentration of drug that inhibited visible growth of the organism.

Enterococcus faecium = assay: In vitro MIC, broth microdilution (CLSI); format: cell-based
Protocol: as §1, §2, §3, §4, §5, §6

Staphylococcus aureus = assay: In vitro MIC, broth microdilution (CLSI); format: cell-based
Protocol: as §1, §2, §3, §4, §5, §6

[2] = test system: Staphylococcus epidermidis; assay: In vitro MIC, broth microdilution (CLSI); format: cell-based
Protocol: as §1, §2, §3, §4, §5, §6

Streptococcus agalactiae = assay: In vitro MIC, broth microdilution (CLSI); format: cell-based; settings: MHB II with 2% lysed horse blood
Protocol: as §1, §2, §3, §4, §5, §6

Streptococcus pneumoniae = assay: In vitro MIC, broth microdilution (CLSI); format: cell-based; settings: MHB II with 2% lysed horse blood
Protocol: as §1, §2, §3, §4, §5, §6

Streptococcus pyogenes = assay: In vitro MIC, broth microdilution (CLSI); format: cell-based; settings: MHB II with 2% lysed horse blood
Protocol: as §1, §2, §3, §4, §5, §6

enterococci = assay: In vitro MIC, for enterococci; format: cell-based; settings: E. faecalis and E. faecium, vancomycin-susceptible and vancomycin-resistant strains
Protocol: as §1
(§7) The medium employed for the MIC assay was Mueller Hinton II Broth (MHB II-Becton Dickinson, #212322, Lot #9044411) for most of the organisms. MHB II was supplemented with 2% lysed horse blood (Cleveland Scientific Lot #22299-1) to accommodate the growth of Streptococcus pneumoniae, Streptococcus pyogenes and Streptococcus agalactiae. The media were prepared at 102.5% the normal weight to offset the dilution created by the addition of 5 μL drug solution to each well of the microdilution panels. […]
(§8) Plates were stacked 3 high, covered with a lid on the top plate, placed in plastic bags, and incubated at 35° C. for approximately 18 hours for most of the isolates. The Streptococcus plates were read after 20 hours of incubation. […] The MIC was read and recorded as the lowest concentration of drug that inhibited visible growth of the organism.

streptococci = assay: In vitro MIC, streptococci; format: cell-based, Streptococcus; settings: highest concentrations considered for MIC readings
Protocol: as §1, §7, §8

C[C@@H]1O[C@@H](Oc2c(-c3ccc(O)cc3)oc3cc(O)cc(O)c3c2=O)[C@H](OC(=O)/C=C/c2ccc(O)cc2)[C@H](OC(=O)/C=C/c2ccc(O)cc2)[C@H]1O [Compound 1, kaempferol 3-O-α-L-(2″,3″-di-E-p-coumaroyl)rhamnoside]
Neither compound was active: activity against the streptococci (streptococci)
1 µg/mL: MIC (Enterococcus faecalis; MMX 4131, VRE, CHP) | MIC (Enterococcus faecium; MMX 0845, VSE, UCLA)
>16 µg/mL: MIC (Streptococcus agalactiae; MMX 3743, Mt. Sinai) | MIC (Streptococcus agalactiae; MMX 4093, UCLA) | MIC (Streptococcus agalactiae; MMX 4106, CHP) | MIC (Streptococcus pneumoniae; MMX 748, PRSP, CHP) | MIC (Streptococcus pneumoniae; MMX 866, PSSP, CHP) | MIC (Streptococcus pneumoniae; MMX 1195, CLSI QC, ATCC 49619) | MIC (Streptococcus pneumoniae; MMX 3130, PSSP, UCLA) | MIC (Streptococcus pneumoniae; MMX 3160, PRSP, UCLA) | MIC (Streptococcus pneumoniae; MMX 3937, PSSP, Mt. Sinai) | MIC (Streptococcus pneumoniae; MMX 3953, PRSP, Mt. Sinai) | MIC (Streptococcus pyogenes; MMX 718, CHP) | MIC (Streptococcus pyogenes; MMX 2572, UCLA) | MIC (Streptococcus pyogenes; MMX 3928, Mt. Sinai)
0.5 µg/mL: MIC (Enterococcus faecium; MMX 1238, VRE, Mt. Sinai)
No untoward effect: acute toxicity at maximum dose given [1]
>8 µg/mL: MIC (Enterococcus faecalis; MMX 742, VSE, CHP) | MIC (Enterococcus faecium; MMX 0799, VSE, CHP) | MIC (Enterococcus faecium; MMX 1259, VSE, Mt. Sinai) | MIC (Enterococcus faecium; MMX 4024, VRE, CHP) | MIC (Enterococcus faecium; MMX 4048, VRE, UCLA) | MIC (Staphylococcus aureus; MMX 100, CLSI QC, ATCC 29213) | MIC (Staphylococcus aureus; MMX 753, MSSA, CHP) | MIC (Staphylococcus aureus; MMX 758, MRSA, CHP) | MIC (Staphylococcus aureus; MMX 2055, MRSA, UCLA) | MIC (Staphylococcus aureus; MMX 2063, MSSA, UCLA) | MIC (Staphylococcus aureus; MMX 3856, MSSA, Mt. Sinai) | MIC (Staphylococcus aureus; MMX 3894, MRSA, Mt. Sinai) | MIC ([2]; MMX 762, MRSE, CHP) | MIC ([2]; MMX 3752, MRSE, Mt. Sinai)
8 µg/mL: MIC (Enterococcus faecalis; MMX 101, CLSI QC, ATCC 29212) | MIC ([2]; MMX 826, MRSE, UCLA)
inhibited multiple strains: activity against enterococci (enterococci)
4 µg/mL: MIC (Enterococcus faecalis; MMX 3199, VSE, UCLA) | MIC (Enterococcus faecalis; MMX 3821, VRE, Mt. Sinai) | MIC (Enterococcus faecalis; MMX 3896, VSE, Mt. Sinai) | MIC (Enterococcus faecalis; MMX 4160, VRE, UCLA) | MIC ([2]; MMX 835, MSSE, UCLA) | MIC ([2]; MMX 3703, MSSE, CHP) | MIC ([2]; MMX 3763, MSSE, Mt. Sinai)
